“Also recorded” adds a separate entry of the source. Where a SMILES comes first, the peptide text is derived from it. Bridges are numbered along the chain shown (N, C = ends). Roman numbers before positions name the chains, in order.
These molecules were tested on GFPβ1-10 expressing H1299c#G3 cells. Settings: FACS FSC/SSC and viable cell number relative to untreated control cells.
Type: cell-based, human
Text: Cell morphology and cell viability.

| SMILES | cytotoxicity / morphological changes |
| --- | --- |
| CC[C@H](C)[C@H](NC(=O)CNC(=O)[C@H](C)NC(=O)[C@H](C)NC(=O)[C@H](CC(N)=O)NC(=O)[C@@H](NC(=O)[C@H](Cc1ccc(O)cc1)NC(=O)[C@H](CCC(=O)O)NC(=O)[C@H](Cc1c[nH]cn1)NC(=O)[C@H](CC(C)C)NC(=O)[C@@H](NC(=O)[C@H](CCSC)NC(=O)[C@H](Cc1c[nH]cn1)NC(=O)[C@H](CC(=O)O)NC(=O)[C@@H](N)CCCNC(=N)N)C(C)C)C(C)C)C(=O)N[C@H](C(=O)NCC(=O)NCC(=O)N[C@@H](CO)C(=O)NCC(=O)NCC(=O)N[C@@H](CSSC[C@H](N)C(=O)NCC(=O)NCC(=O)N[C@@H](CCCNC(=N)N)C(=O)N[C@@H](CCCCN)C(=O)N[C@@H](CCCCN)C(=O)N[C@@H](CCCNC(=N)N)C(=O)N[C@@H](CCCNC(=N)N)C(=O)N[C@@H](CCC(N)=O)C(=O)N[C@@H](CCCNC(=N)N)C(=O)N[C@@H](CCCNC(=N)N)C(=O)N[C@@H](CCCNC(=N)N)C(=O)NCC(=O)N[C@@H](Cc1c[nH]c2ccccc12)C(=O)N[C@@H](Cc1c[nH]c2ccccc12)C(=O)NCC(N)=O)C(N)=O)[C@@H](C)O [GFPβ11-(S-S)-TAT-WW] (I: H-RDHMVLHEYVNAAGITGGSGGC-NH2 / II: H-CGGRKKRRQRRRGWWG-NH2; disulfide I:22-II:1) | severely increased cytotoxicity |
| CC[C@H](C)[C@H](NC(=O)CNC(=O)[C@H](C)NC(=O)[C@H](C)NC(=O)[C@H](CC(N)=O)NC(=O)[C@@H](NC(=O)[C@H](Cc1ccc(O)cc1)NC(=O)[C@H](CCC(=O)O)NC(=O)[C@H](Cc1c[nH]cn1)NC(=O)[C@H](CC(C)C)NC(=O)[C@@H](NC(=O)[C@H](CCSC)NC(=O)[C@H](Cc1c[nH]cn1)NC(=O)[C@H](CC(=O)O)NC(=O)[C@@H](N)CCCNC(=N)N)C(C)C)C(C)C)C(=O)N[C@H](C(=O)NCC(=O)NCC(=O)N[C@@H](CO)C(=O)NCC(=O)NCC(=O)N[C@@H](CSSC[C@H](N)C(=O)NCC(=O)NCC(=O)N[C@@H](CCCNC(=N)N)C(=O)N[C@@H](CCCCN)C(=O)N[C@@H](CCCCN)C(=O)N[C@@H](CCCNC(=N)N)C(=O)N[C@@H](CCCNC(=N)N)C(=O)N[C@@H](CCC(N)=O)C(=O)N[C@@H](CCCNC(=N)N)C(=O)N[C@@H](CCCNC(=N)N)C(=O)N[C@@H](CCCNC(=N)N)C(N)=O)C(N)=O)[C@@H](C)O [GFPβ11-(S-S)-TAT] | absence of cytotoxicity |
| CC[C@H](C)[C@H](NC(=O)CNC(=O)[C@H](C)NC(=O)[C@H](C)NC(=O)[C@H](CC(N)=O)NC(=O)[C@@H](NC(=O)[C@H](Cc1ccc(O)cc1)NC(=O)[C@H](CCC(=O)O)NC(=O)[C@H](Cc1c[nH]cn1)NC(=O)[C@H](CC(C)C)NC(=O)[C@@H](NC(=O)[C@H](CCSC)NC(=O)[C@H](Cc1c[nH]cn1)NC(=O)[C@H](CC(=O)O)NC(=O)[C@@H](N)CCCNC(=N)N)C(C)C)C(C)C)C(=O)N[C@H](C(=O)NCC(=O)NCC(=O)N[C@@H](CO)C(=O)NCC(=O)NCC(=O)N[C@@H](CSSC[C@H](N)C(=O)NCC(=O)NCC(=O)N[C@@H](C)C(=O)NCC(=O)N[C@@H](Cc1ccc(O)cc1)C(=O)N[C@@H](CC(C)C)C(=O)N[C@@H](CC(C)C)C(=O)NCC(=O)N[C@@H](CCCCN)C(=O)N[C@H](C(=O)N[C@@H](CC(N)=O)C(=O)N[C@@H](CC(C)C)C(=O)N[C@@H](CCCCN)C(=O)N[C@@H](C)C(=O)N[C@@H](CC(C)C)C(=O)N[C@@H](C)C(=O)N[C@@H](C)C(=O)N[C@@H](CC(C)C)C(=O)N[C@@H](C)C(=O)N[C@@H](CCCCN)C(=O)N[C@@H](CCCCN)C(=O)N[C@H](C(=O)N[C@@H](CC(C)C)C(N)=O)[C@@H](C)CC)[C@@H](C)CC)C(N)=O)[C@@H](C)O [GFPβ11-(S-S)-TP10] | very high level of cytotoxicity; also recorded: high toxicity |

— patent US20170275650A1, “ENDOSOMAL ESCAPE DOMAINS FOR […] OF MACR[…] CELLS” (priority 2014, published 2017)
